Test results reported in patent US12383535B2, “Hydrogen peroxide-responsive KEAP1-NRF2 ppi inhibitor prodrug, and preparation method therefor” (CHINA PHARMACEUTICAL UNIVERSITY, priority 2019, dated 2025).

Columns and labels:
[1] = pH stability in PBS buffers; assay type: physicochemical; conditions: PBS solutions, pH 4-10
Method: (1) pH stability. PBS buffers with different pH values (pH 4-10) were prepared from a 0.1 M HCl solution and a 0.1 M NaOH solution. The prodrug pro2 (20 μM) was incubated in triplicate together with the PBS buffers of different pH at 37° C. After 24 h of incubation, the solutions were filtered and injected for direct sample analysis by HPLC, and the peak areas were recorded to calculate the percentage of compound.

[2] = system: IL-1β and IL-6 protein in RAW264.7 cells; assay: Western blot of IL-1β and IL-6 protein levels; assay type: cell-based, mouse; conditions: same concentration
Method: Anti-Nrf2 (ab62352) and anti-IL-1β (ab45692) antibodies were purchased from Abcam Technology (England). Anti-HO-1 (SC-136960) and anti-NQO1 (SC-271116) antibodies were purchased from Santa Cruz Biotechnology (California, USA). Anti-β-Actin (60008-1-Ig) and anti-GCLM (14241-1-AP) antibodies were purchased from Proteintech Group (USA). Cell sampling and western blot were performed as previously reported (M.-C. Lu, J.-A. Ji, Y.-L. Jiang, Z.-Y. Chen, Z.-W. Yuan, Q.-D. You, Z.-Y. Jiang, An inhibitor of the Keap1-Nrf2 protein-protein interaction protects NCM460 colonic cells and alleviates experimental colitis, Sci. Rep., 6 (2016) 26585).

SMILES: COc1ccc(S(=O)(=O)Nc2ccc(N(CC(=O)N3CCSC3=O)S(=O)(=O)c3ccc(OC)cc3)c3ccccc23)cc1 [pro2]
- hydrolytic stability in PBS [1]: hydrolytically stable
- LPS-induced IL-1β and IL-6 protein expression [2]: almost completely inhibited
